# Assay results: patent US10815230B2, “Casein kinase 1 delta inhibitor” (ELECTROPHORETICS LIMITED, priority 2015, dated 2020)
# What was measured:
# [1] = in vitro; settings: human
# Description: (§1) The cytotoxicity screening panel was performed by Cyprotex® according to their established protocols. HepG2 cells were plated on 96-well tissue culture treated black walled clear bottomed polystyrene plates, 100 μL per well. The cells were dosed with compound A and comparative compound 324 (WO2012080727; 5-(1,3-benzoxazol-2-yl)-4-(pyridine-4-yl)pyrimidin-2-amine) amine) at […], 0.1 μM, 0.4 μM, 1.0 μM, 4.0 μM, 10 μM, 40 μM and 100 μM. At the end of the incubation period (72 h), the cells were loaded with the relevant dye/antibody for each cell health marker. The plates were then scanned using an automated fluorescent cellular imager, ArrayScan® VTI (Thermo Scientific Cellomics).
# (§2) Cytotoxicity was assessed using a multiparametric approach using High Content Screening (HCS) O'Brien P and Haskins J R (2007) High Content Screening: A Powerful Approach to Systems Cell Biology and Drug Discovery Ed. Taylor et al.; 415-425). […] This assay scores compounds across direct and indirect measure of toxicity.
# [2] = tested on: HepG2 cells; assay: in vitro; settings: human, 72 h
# Description: as §1, §2
# [3] = molecular target: AKT1 (Homo sapiens, UniProt P31749); assay: KINOMEscan binding assay; settings: read-out: % Ctrl @ 10000 nM
# [4] = molecular target: ANKK1 (Homo sapiens, UniProt Q8NFD2); assay: KINOMEscan binding assay; settings: read-out: % Ctrl @ 10000 nM
# [5] = molecular target: BUB1 (Homo sapiens, UniProt O43683); assay: KINOMEscan binding assay; settings: read-out: % Ctrl @ 10000 nM
# [6] = molecular target: CAMK1D (Homo sapiens, UniProt Q8IU85); assay: KINOMEscan binding assay; settings: read-out: % Ctrl @ 10000 nM
# [7] = molecular target: CDC2L2 (Homo sapiens, UniProt Q9UQ88); assay: KINOMEscan binding assay; settings: read-out: % Ctrl @ 10000 nM
# [8] = molecular target: CDK7 (Homo sapiens, UniProt P50613); assay: KINOMEscan binding assay; settings: read-out: % Ctrl @ 10000 nM
# [9] = molecular target: DDR2 (Homo sapiens, UniProt Q16832); assay: KINOMEscan binding assay; settings: read-out: % Ctrl @ 10000 nM
# [10] = molecular target: FGR (Homo sapiens, UniProt P09769); assay: KINOMEscan binding assay; settings: read-out: % Ctrl @ 10000 nM
# [11] = molecular target: FLT3 (D835Y) (Homo sapiens, UniProt P36888, D835Y); assay: KINOMEscan binding assay; settings: read-out: % Ctrl @ 10000 nM
# [12] = molecular target: FLT3 (N841I) (Homo sapiens, UniProt P36888, N841I); assay: KINOMEscan binding assay; settings: read-out: % Ctrl @ 10000 nM
# [13] = molecular target: FLT3 (R834Q) (Homo sapiens, UniProt P36888, R834Q); assay: KINOMEscan binding assay; settings: read-out: % Ctrl @ 10000 nM
# [14] = molecular target: FYN (Homo sapiens, UniProt P06241); assay: KINOMEscan binding assay; settings: read-out: % Ctrl @ 10000 nM
# [15] = molecular target: HIPK4 (Homo sapiens, UniProt Q8NE63); assay: KINOMEscan binding assay; settings: read-out: % Ctrl @ 10000 nM
# [16] = molecular target: MEK6 (Homo sapiens, UniProt P52564); assay: KINOMEscan binding assay; settings: read-out: % Ctrl @ 10000 nM
# [17] = molecular target: MST1 (Homo sapiens, UniProt Q13043); assay: KINOMEscan binding assay; settings: read-out: % Ctrl @ 10000 nM
# [18] = molecular target: MST3 (Homo sapiens, UniProt Q9Y6E0); assay: KINOMEscan binding assay; settings: read-out: % Ctrl @ 10000 nM
# [19] = molecular target: NEK10 (Homo sapiens, UniProt Q6ZWH5); assay: KINOMEscan binding assay; settings: read-out: % Ctrl @ 10000 nM
# [20] = molecular target: NEK4 (Homo sapiens, UniProt P51957); assay: KINOMEscan binding assay; settings: read-out: % Ctrl @ 10000 nM
# [21] = molecular target: NIM1 (Homo sapiens, UniProt Q8IY84); assay: KINOMEscan binding assay; settings: read-out: % Ctrl @ 10000 nM
# [22] = molecular target: NLK (Homo sapiens, UniProt Q9UBE8); assay: KINOMEscan binding assay; settings: read-out: % Ctrl @ 10000 nM
# [23] = molecular target: PIK3CA (C420R) (Homo sapiens, UniProt P42336, C420R); assay: KINOMEscan binding assay; settings: read-out: % Ctrl @ 10000 nM
# [24] = molecular target: PKAC-alpha (Homo sapiens, UniProt P17612); assay: KINOMEscan binding assay; settings: read-out: % Ctrl @ 10000 nM
# [25] = molecular target: PRKR (Homo sapiens, UniProt P19525); assay: KINOMEscan binding assay; settings: read-out: % Ctrl @ 10000 nM
# [26] = molecular target: PRKX (Homo sapiens, UniProt P51817); assay: KINOMEscan binding assay; settings: read-out: % Ctrl @ 10000 nM
# [27] = molecular target: RAF1 (Homo sapiens, UniProt P04049); assay: KINOMEscan binding assay; settings: read-out: % Ctrl @ 10000 nM
# [28] = molecular target: RET (Homo sapiens, UniProt P07949); assay: KINOMEscan binding assay; settings: read-out: % Ctrl @ 10000 nM
# [29] = molecular target: RIOK1 (Homo sapiens, UniProt Q9BRS2); assay: KINOMEscan binding assay; settings: read-out: % Ctrl @ 10000 nM
# [30] = molecular target: RIPK1 (Homo sapiens, UniProt Q13546); assay: KINOMEscan binding assay; settings: read-out: % Ctrl @ 10000 nM
# [31] = molecular target: TAOK3 (Homo sapiens, UniProt Q9H2K8); assay: KINOMEscan binding assay; settings: read-out: % Ctrl @ 10000 nM
# [32] = molecular target: TIE1 (Homo sapiens, UniProt P35590); assay: KINOMEscan binding assay; settings: read-out: % Ctrl @ 10000 nM
# [33] = molecular target: TNIK (Homo sapiens, UniProt Q9UKE5); assay: KINOMEscan binding assay; settings: read-out: % Ctrl @ 10000 nM
# [34] = molecular target: TNK2 (Homo sapiens, UniProt Q07912); assay: KINOMEscan binding assay; settings: read-out: % Ctrl @ 10000 nM
# [35] = molecular target: T1, TYRO3 (Homo sapiens, UniProt Q06418); assay: KINOMEscan binding assay; settings: read-out: % Ctrl @ 10000 nM
# T1 construct: purchased DiscoveRx (KINOMEscan, LeadHunter Discovery services)
# [36] = Cell membrane permeability AC50
# [37] = Mitochondrial membrane potential AC50
# Chain of TAOK3 (Q9H2K8 whole entry): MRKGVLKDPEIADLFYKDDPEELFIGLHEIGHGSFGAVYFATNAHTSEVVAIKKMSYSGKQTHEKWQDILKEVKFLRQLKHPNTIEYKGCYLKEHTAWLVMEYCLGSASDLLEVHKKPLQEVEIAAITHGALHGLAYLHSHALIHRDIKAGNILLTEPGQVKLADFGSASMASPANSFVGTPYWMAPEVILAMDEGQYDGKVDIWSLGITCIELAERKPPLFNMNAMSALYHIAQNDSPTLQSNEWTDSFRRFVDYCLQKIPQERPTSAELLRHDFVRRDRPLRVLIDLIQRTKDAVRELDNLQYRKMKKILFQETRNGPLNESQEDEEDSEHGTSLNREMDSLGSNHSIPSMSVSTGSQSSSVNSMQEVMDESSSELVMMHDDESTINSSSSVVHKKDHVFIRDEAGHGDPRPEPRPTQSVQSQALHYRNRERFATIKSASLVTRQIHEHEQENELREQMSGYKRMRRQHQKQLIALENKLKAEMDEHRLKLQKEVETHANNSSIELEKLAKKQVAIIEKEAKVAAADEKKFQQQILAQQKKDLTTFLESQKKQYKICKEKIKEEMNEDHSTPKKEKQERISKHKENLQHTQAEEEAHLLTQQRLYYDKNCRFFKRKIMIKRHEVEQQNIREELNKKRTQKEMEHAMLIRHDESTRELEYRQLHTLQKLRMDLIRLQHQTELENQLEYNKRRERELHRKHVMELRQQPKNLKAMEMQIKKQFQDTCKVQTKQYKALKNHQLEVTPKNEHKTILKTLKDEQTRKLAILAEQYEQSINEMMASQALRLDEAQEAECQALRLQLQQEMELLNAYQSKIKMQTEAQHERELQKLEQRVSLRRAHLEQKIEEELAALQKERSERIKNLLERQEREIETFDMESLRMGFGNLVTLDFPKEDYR
# Chain of PRKX (P51817 whole entry): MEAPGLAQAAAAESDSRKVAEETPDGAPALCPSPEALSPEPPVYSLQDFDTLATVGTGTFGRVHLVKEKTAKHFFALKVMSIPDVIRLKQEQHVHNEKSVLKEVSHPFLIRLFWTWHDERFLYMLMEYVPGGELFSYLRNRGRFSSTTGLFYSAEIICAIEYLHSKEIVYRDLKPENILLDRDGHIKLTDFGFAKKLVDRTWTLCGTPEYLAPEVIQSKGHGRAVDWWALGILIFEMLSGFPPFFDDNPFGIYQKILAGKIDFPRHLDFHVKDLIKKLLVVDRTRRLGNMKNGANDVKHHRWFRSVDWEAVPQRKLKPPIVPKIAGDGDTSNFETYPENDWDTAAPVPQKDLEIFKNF
# T1 sequence (Q06418 41-890): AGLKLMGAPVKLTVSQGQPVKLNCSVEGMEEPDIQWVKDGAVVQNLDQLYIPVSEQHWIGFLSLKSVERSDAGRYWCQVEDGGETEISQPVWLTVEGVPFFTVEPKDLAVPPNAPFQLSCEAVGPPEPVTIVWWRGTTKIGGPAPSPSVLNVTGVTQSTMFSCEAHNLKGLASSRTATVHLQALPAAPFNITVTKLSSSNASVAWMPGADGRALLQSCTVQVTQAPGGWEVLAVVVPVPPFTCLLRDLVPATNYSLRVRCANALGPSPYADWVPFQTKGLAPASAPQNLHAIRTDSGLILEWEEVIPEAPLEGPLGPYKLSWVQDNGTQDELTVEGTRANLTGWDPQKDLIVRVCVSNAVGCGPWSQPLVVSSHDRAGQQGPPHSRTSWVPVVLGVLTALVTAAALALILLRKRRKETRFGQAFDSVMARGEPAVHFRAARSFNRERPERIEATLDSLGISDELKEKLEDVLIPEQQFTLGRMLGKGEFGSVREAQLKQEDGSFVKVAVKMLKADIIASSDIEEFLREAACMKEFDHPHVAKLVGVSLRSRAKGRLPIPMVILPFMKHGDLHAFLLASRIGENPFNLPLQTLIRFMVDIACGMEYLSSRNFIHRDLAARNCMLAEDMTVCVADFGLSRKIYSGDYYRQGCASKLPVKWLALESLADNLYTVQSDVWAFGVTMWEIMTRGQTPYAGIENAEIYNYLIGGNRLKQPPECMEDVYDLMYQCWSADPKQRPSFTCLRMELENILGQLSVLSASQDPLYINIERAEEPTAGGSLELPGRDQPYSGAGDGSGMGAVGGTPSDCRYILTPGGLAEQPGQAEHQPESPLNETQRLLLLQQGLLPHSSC
# Chain of NEK10 (Q6ZWH5 whole entry): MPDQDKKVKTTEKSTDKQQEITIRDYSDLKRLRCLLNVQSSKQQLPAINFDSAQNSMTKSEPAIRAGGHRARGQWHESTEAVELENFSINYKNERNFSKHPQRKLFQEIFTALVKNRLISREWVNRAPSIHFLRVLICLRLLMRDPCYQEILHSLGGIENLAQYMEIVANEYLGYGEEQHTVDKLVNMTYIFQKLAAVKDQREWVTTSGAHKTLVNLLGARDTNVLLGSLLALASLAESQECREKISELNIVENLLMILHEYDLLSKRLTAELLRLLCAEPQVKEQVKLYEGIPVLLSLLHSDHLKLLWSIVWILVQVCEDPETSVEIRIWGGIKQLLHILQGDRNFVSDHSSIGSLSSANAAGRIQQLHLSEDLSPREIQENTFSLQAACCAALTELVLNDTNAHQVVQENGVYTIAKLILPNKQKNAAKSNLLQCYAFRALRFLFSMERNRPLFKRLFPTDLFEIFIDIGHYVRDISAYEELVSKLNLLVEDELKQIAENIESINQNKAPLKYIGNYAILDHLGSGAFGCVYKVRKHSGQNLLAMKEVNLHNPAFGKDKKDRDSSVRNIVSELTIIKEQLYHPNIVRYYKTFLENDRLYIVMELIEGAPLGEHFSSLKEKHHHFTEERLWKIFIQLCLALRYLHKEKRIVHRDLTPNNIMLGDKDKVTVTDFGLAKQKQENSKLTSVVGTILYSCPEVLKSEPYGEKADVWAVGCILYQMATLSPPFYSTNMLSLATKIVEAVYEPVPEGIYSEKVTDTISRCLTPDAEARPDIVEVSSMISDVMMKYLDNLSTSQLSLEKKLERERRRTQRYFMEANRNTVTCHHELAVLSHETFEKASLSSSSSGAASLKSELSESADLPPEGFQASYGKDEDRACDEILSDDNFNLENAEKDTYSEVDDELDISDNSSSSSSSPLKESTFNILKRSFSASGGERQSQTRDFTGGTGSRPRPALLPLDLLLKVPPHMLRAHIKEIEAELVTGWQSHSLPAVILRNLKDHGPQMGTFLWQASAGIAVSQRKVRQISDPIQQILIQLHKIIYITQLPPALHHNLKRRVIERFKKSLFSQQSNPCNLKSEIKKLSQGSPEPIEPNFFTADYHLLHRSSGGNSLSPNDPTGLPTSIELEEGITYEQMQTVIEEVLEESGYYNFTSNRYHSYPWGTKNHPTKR
# Chain of RET (P07949 29-1114): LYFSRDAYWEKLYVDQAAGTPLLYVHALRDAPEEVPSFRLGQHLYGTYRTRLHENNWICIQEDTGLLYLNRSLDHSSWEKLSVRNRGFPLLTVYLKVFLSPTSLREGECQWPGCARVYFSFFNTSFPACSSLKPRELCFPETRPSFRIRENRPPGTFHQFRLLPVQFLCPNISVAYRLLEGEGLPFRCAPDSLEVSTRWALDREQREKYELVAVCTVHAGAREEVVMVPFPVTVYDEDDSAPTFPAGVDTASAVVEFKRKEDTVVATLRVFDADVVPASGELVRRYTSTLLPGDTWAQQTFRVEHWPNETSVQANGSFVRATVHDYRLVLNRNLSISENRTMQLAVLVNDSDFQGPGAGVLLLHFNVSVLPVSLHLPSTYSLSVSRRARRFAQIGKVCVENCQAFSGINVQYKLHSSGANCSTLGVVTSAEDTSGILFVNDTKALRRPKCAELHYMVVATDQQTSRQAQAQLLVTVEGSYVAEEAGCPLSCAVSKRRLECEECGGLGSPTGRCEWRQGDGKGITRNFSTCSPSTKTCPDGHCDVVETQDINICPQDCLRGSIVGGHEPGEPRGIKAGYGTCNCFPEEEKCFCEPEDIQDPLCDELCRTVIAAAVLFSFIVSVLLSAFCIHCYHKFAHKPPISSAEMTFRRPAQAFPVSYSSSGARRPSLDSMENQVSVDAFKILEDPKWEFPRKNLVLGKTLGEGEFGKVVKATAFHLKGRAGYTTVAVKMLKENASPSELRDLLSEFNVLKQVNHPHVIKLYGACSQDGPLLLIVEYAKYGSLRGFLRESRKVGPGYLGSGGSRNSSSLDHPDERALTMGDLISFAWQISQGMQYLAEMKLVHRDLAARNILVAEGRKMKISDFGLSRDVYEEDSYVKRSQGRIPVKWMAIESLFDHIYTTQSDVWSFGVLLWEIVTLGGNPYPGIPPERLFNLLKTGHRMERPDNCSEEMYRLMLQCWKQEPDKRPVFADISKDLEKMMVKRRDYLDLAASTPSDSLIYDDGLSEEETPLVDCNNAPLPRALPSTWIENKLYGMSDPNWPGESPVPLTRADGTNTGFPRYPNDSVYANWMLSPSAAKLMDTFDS
# Chain of RAF1 (P04049 whole entry): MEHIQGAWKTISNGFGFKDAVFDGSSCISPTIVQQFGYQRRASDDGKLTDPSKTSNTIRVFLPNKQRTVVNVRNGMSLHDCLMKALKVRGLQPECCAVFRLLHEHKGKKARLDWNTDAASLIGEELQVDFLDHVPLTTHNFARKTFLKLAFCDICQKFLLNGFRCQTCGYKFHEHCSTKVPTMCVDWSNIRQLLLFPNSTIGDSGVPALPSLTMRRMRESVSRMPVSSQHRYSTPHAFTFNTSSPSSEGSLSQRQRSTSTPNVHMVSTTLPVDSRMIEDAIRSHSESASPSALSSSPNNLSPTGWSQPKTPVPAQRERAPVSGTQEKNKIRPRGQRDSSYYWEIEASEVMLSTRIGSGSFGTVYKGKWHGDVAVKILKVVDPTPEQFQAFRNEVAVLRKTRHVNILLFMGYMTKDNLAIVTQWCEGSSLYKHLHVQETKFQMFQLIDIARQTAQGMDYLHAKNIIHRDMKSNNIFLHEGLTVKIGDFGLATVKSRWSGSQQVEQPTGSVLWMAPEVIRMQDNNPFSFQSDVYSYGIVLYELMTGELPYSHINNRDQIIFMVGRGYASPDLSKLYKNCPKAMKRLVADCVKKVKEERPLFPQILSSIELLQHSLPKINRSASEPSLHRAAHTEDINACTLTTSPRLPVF
smiles,measurement,setting,value
"Nc1ncc(-c2nc3ccccc3o2)c(-c2ccncc2)n1 [Comparative Compound 324, 5-(1,3-benzoxazol-2-yl)-4-(pyridine-4-yl)pyrimidin-2-amine]",AC50 at 72 h,[1]; Cell Count AC50,> 100 µM
same,AC50 at 72 h,[1]; [36],> 100 µM
same,AC50 at 72 h,[1]; Cytochrome c AC50,82 µM
same,AC50 at 72 h,[1]; DNA structure AC50,> 100 µM
same,AC50 at 72 h,[1]; Mitochondrial mass AC50,> 100 µM
same,AC50 at 72 h,[1]; [37],> 100 µM
same,AC50 at 72 h,[1]; Nuclear size AC50,> 100 µM
same,Cell membrane permeability MEC,[2],(11.1↑) μM
same,Cytochrome c MEC,[2],(22.2↑) μM
same,DNA structure MEC,[2],(7.33↑) μM
same,Mitochondrial mass MEC,[2],(16.8↓) μM
same,Mitochondrial membrane potential MEC,[2],(17.2↑) μM
same,remaining binding at 10 µM,[3],96%
same,remaining binding at 10 µM,[4],71%
same,remaining binding at 10 µM,[5],44%
same,remaining binding at 10 µM,[6],96%
same,remaining binding at 10 µM,[7],100%
same,remaining binding at 10 µM,[8],70%
same,remaining binding at 10 µM,[9],100%
same,remaining binding at 10 µM,[10],94%
same,remaining binding at 10 µM,[11],90%
same,remaining binding at 10 µM,[12],83%
same,remaining binding at 10 µM,[13],97%
same,remaining binding at 10 µM,[14],60%
same,remaining binding at 10 µM,[15],100%
same,remaining binding at 10 µM,[16],98%
same,remaining binding at 10 µM,[17],92%
same,remaining binding at 10 µM,[18],98%
same,remaining binding at 10 µM,[19],56%
same,remaining binding at 10 µM,[20],89%
same,remaining binding at 10 µM,[21],96%
same,remaining binding at 10 µM,[22],41%
same,remaining binding at 10 µM,[23],99%
same,remaining binding at 10 µM,[24],91%
same,remaining binding at 10 µM,[25],96%
same,remaining binding at 10 µM,[26],100%
same,remaining binding at 10 µM,[27],100%
same,remaining binding at 10 µM,[28],94%
same,remaining binding at 10 µM,[29],100%
same,remaining binding at 10 µM,[30],100%
same,remaining binding at 10 µM,[31],91%
same,remaining binding at 10 µM,[32],100%
same,remaining binding at 10 µM,[33],78%
same,remaining binding at 10 µM,[34],100%
same,remaining binding at 10 µM,[35],99%
"CNc1c(C(N)=O)c2ccccn2c1C(=O)c1ccc(F)cc1 [Compound A, 2-methyl-amino-3-[(4-fluorophenyl)carbonyl]indolizine-1-carboxamide]",AC50 at 72 h,[1]; Cell Count AC50,7.88 µM
same,AC50 at 72 h,[1]; [36],> 40 µM
same,AC50 at 72 h,[1]; Cytochrome c AC50,> 100 µM
same,AC50 at 72 h,[1]; DNA structure AC50,> 100 µM
same,AC50 at 72 h,[1]; Mitochondrial mass AC50,> 40 µM
same,AC50 at 72 h,[1]; [37],43.4 µM
same,AC50 at 72 h,[1]; Nuclear size AC50,12.3 µM
same,Cell Count MEC,[2],2.75↓ μM
same,Cell membrane permeability MEC,[2],1.26↑ μM
same,DNA structure MEC,[2],15.1↑ μM
same,Mitochondrial mass MEC,[2],1.34↑ μM
same,Mitochondrial membrane potential MEC,[2],3.31↓ μM
same,Nuclear size MEC,[2],2.44↑ μM
same,remaining binding at 10 µM,[3],91%
same,remaining binding at 10 µM,[4],68%
same,remaining binding at 10 µM,[5],44%
same,remaining binding at 10 µM,[6],97%
same,remaining binding at 10 µM,[7],91%
same,remaining binding at 10 µM,[8],56%
same,remaining binding at 10 µM,[9],65%
same,remaining binding at 10 µM,[10],66%
same,remaining binding at 10 µM,[11],94%
same,remaining binding at 10 µM,[12],87%
same,remaining binding at 10 µM,[13],95%
same,remaining binding at 10 µM,[14],33%
same,remaining binding at 10 µM,[15],83%
same,remaining binding at 10 µM,[16],73%
same,remaining binding at 10 µM,[17],84%
same,remaining binding at 10 µM,[18],71%
same,remaining binding at 10 µM,[19],100%
same,remaining binding at 10 µM,[20],96%
same,remaining binding at 10 µM,[21],87%
same,remaining binding at 10 µM,[22],35%
same,remaining binding at 10 µM,[23],94%
same,remaining binding at 10 µM,[24],42%
same,remaining binding at 10 µM,[25],90%
same,remaining binding at 10 µM,[26],100%
same,remaining binding at 10 µM,[27],95%
same,remaining binding at 10 µM,[28],80%
same,remaining binding at 10 µM,[29],100%
same,remaining binding at 10 µM,[30],99%
same,remaining binding at 10 µM,[31],93%
same,remaining binding at 10 µM,[32],95%
same,remaining binding at 10 µM,[33],53%
same,remaining binding at 10 µM,[34],81%
same,remaining binding at 10 µM,[35],100%
